The values below come from US5830911A, “Pyranoindole and tetrahydrocarbazole inhibitors of COX-2” (American Home Products Corporation, priority 1997, dated 1998).

Each structure is given as a SMILES string. A value given as a limit tells only on which side of the number the result lay.

The target in one series is T1, rhCOX-2 (Homo sapiens, UniProt P35354).
T1 construct: made in house; microsomal preparation
T1 sequence (P35354 18-604): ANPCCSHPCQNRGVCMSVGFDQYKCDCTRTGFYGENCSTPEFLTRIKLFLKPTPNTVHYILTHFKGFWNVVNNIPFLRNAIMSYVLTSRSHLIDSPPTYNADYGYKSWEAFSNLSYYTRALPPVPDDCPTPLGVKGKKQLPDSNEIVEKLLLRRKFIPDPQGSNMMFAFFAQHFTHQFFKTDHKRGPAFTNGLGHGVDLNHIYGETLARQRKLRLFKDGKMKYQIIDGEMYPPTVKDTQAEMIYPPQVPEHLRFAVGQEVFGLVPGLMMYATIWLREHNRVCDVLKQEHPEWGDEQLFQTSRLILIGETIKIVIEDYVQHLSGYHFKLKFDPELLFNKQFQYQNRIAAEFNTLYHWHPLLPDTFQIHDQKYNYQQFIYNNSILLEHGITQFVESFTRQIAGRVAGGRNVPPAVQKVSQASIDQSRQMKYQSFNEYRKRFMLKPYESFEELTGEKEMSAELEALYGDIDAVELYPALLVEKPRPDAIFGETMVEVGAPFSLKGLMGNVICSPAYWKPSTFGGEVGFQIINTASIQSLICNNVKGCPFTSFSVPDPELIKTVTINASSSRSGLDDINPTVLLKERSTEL
Description: Inhibition of recombinant human COX-2 (PGH2 converted to PGF2α, EIA). It counts as biochemical. The settings on record: for IC50: human recombinant COX-2, 30 min preincubation, 37° C. The protocol: (§1) Representative compounds of this invention were evaluated for inhibition of COX-2 and COX-1 enzymes as follows. Human COX-1 and COX-2 cDNAs were cloned from human monocytes, untreated and LPS-treated respectively, by RT-PCR using oligonucleotide primers based on published hCOX-1 and hCOX-2 sequences (Jones et al., J. Biol. Chem., 268, 9049 (1993)). The cDNAs were then transfected into either Sf9 or CHO cells and subsequently converted into a microsomal preparation as described by Glaser et al (Eur. J. Pharmacol. 281, 107-111 (1995)). The microsomal human recombinant enzymes were diluted with buffer (100 mM Tris, pH 7.8 at 37° C.) containing 0.5 mM phenol ([…] total volume). The enzyme preparations were preincubated with vehicle (DMSO) or compounds in DMSO (1 % DMSO in final assay) for 30 min at 37° C. Excess hematin was added 1 min prior to initiation of reaction (1.25 mM final hematin) with 30 mM arachidonic acid (sodium salt). Final assay volume was 1.0 ml (100 mM Tris (pH 7.8), 0.5 mM phenol, 1.25 mM hematin and 30 mM arachidonic acid at 37° C.).
The reaction was incubated for 35 sec (maximum level of PGH2 accumulation as determined from time course studies), and terminated by addition of […] of SnCl2 (1 mg/ml) in 0.1N HCl. PGH2 is quantitatively converted to PGF2a by this reaction (50% efficiency of total conversion). The pH of each tube is adjusted to pH 3.0-3.5 with 0.1N--NaOH and extracted twice with 1.5 ml of ethyl acetate (75-90% efficiency per extraction). Combined ethyl acetate extracts were dried under N2 (g) and redissolved in EIA buffer (2.0 ml), and PGF2α ( was quantified by EIA.

For another series, the system named is COX-2. The conditions noted are these: literature; cited from earlier work.
A further series concerns the target T2, purified ovine COX-1 (Ovis aries, UniProt P05979).
T2 construct: purchased Cayman Chemicals (Ann Arbor, Mich.)
T2 sequence (P05979 25-600): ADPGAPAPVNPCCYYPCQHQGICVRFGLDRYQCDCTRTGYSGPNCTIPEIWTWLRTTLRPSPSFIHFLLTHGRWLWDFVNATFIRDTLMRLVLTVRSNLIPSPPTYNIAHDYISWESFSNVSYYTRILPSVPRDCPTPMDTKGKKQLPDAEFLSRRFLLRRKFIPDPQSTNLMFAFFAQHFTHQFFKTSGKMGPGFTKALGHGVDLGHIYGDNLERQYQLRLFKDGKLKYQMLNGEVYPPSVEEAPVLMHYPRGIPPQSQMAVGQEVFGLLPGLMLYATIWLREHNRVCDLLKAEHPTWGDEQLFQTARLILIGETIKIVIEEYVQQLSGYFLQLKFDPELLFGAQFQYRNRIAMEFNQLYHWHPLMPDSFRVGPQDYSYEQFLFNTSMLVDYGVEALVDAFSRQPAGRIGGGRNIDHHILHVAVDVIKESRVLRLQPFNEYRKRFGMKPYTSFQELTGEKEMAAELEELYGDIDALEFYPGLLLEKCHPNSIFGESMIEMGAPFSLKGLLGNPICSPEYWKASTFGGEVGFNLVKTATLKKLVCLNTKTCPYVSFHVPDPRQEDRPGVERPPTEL
The experiment in a line: Inhibition of purified ovine COX-1 (PGH2 converted to PGF2α, EIA). The series is classed as biochemical. The conditions noted are these: for inhibition at 270 µM / inhibition at 30 µM / inhibition at 90 µM / inhibition at 10 µM: read-out: % inh of pur. bovine COX-1. The protocol:
[The source words this procedure for another species and reports this species under the same test.] as §1, with “C.). The reaction was incubated for 35 sec (maximum level of PGH2 accumulation as determined from time course studies), and terminated by addition of […] of SnCl2 (1 mg/ml) in 0.1N HCl. PGH2 is quantitatively converted to PGF2a by this reaction (50% efficiency of total conversion). The pH of each tube is adjusted to pH 3.0-3.5 with 0.1N--NaOH and extracted twice with 1.5 ml of ethyl acetate (75-90% efficiency per extraction).” for “C.).”

The conditions of series [1]: Futaki et al., Gen. Pharmac. 24, 105-110, 1993; cited from earlier work.
The conditions of series [2]: Futaki et al., Gen. Pharmac. 24, 105-110, 1993; cited from earlier work. This is another data set of the same source.
The conditions of series [3]: Rogers et al., Neurology 43, 1609-1611 (1993); cited from earlier work.

For the compound `CCCC1(CC(=O)O)OCCc2c1[nH]c1c(F)ccc(C#N)c21` (centres unmarked) [Example 1, 5-Cyano-8-fluoro-1-propyl-1,3,4,9-tetrahydropyrano[3,4-b]indole-1-acetic acid], on rhCOX-2, the IC50 – broadly, the concentration needed to halve the response being measured – came out at 1 µM.

Take `CCc1cccc2c3c([nH]c12)C(CC)(CC(=O)O)OCC3` (centres unmarked) [etodolac]: the “selectivity for inhibition of COX-2” value in the series with COX-2 was “tenfold”.

On to `C=CCC1(CC(=O)O)CCCc2c1[nH]c1c(C#N)ccc(C#N)c21` (centres unmarked) [Example 11, 1-Allyl-5,8-dicyano-2,3,4,9-tetrahydro-1H-carbazole-1-acetic acid], for which the inhibition at 270 µM at purified ovine COX-1 was determined as 86%. In addition, on rhCOX-2 (read-out: % inh of rhCOX-2), the inhibition at 1 µM came to 91%.

Regarding `CCCC1(CC(=O)O)OCCc2c1[nH]c1cccc(C#N)c21` (centres unmarked) [Example 4, 5-Cyano-1-propyl-1,3,4,9-tetrahydropyrano[3,4-b]indole-1-acetic acid], the IC50 is greater than 1000 µM at purified ovine COX-1 (purified ovine COX-1, 30 min preincubation, 37° C.) and 1.7 µM on rhCOX-2.

`CCCC1(CC(=O)O)CCCc2c1[nH]c1c(C)ccc(C#N)c21` (centres unmarked) [Example 8, 5-Cyano-1-propyl-8-methyl-2,3,4,9-tetrahydro-1H-carbazole-1-acetic acid]: the inhibition at 270 µM at purified ovine COX-1 came out at 99%. In addition, on rhCOX-2 (read-out: % inh of rhCOX-2), the inhibition at 1 µM was determined as 44%.

For the compound `CCC1(CC(=O)O)OCCc2c1[nH]c1cccc(C#N)c21` (centres unmarked) [Example 3, 5-Cyano-1-ethyl-1,3,4,9-tetrahydropyrano[3,4-b]indole-1-acetic acid], on purified ovine COX-1, the inhibition at 30 µM was determined as 47% and the inhibition at 270 µM turned out to be 31%. Besides, the IC50 at rhCOX-2 turned out to be 0.57 µM.

`CCCC1(CC(=O)O)CCCc2c1[nH]c1c(C(N)=O)ccc(C#N)c21` (centres unmarked) [Example 9, 8-Carboxamido-5-cyano-1-propyl-2,3,4,9-tetrahydro-1H-carbazole-1-acetic acid]: the inhibition at 90 µM on purified ovine COX-1 is -37%. Also, the inhibition at 0.1 µM at rhCOX-2 (read-out: % inh of rhCOX-2) came out at 21%.

For the compound `C=CCC1(CC(=O)O)CCCc2c1[nH]c1c(C)ccc(C#N)c21` (centres unmarked) [Example 7, 1-Allyl-5-cyano-8-methyl-2,3,4,9-tetrahydro-1H-carbazole-1-acetic acid], the inhibition at 30 µM at purified ovine COX-1 was determined as 99%. Also, the inhibition at 0.3 µM on rhCOX-2 (at 0.3 μM, read-out: % inh of rhCOX-2) is 75%.

Regarding `C=CCC1(CC(=O)O)CCCc2c1[nH]c1c(F)ccc(C#N)c21` (centres unmarked) [Example 5, 1-Allyl-5-cyano-8-fluoro-2,3,4,9-tetrahydro-1H-carbazole-1-acetic acid], the inhibition at 10 µM at purified ovine COX-1 worked out at 93%. Besides, the IC50 on rhCOX-2 worked out at 0.1 µM.

Take `CCCC1(CC(=O)O)CCCc2c1[nH]c1c(C#N)ccc(C#N)c21` (centres unmarked) [Example 12, 5,8-Dicyano-1-propyl-2,3,4,9-tetrahydro-1H-carbazole-1-acetic acid]: on purified ovine COX-1, the inhibition at 270 µM came to 98%. On rhCOX-2 (read-out: % inh of rhCOX-2), the inhibition at 1 µM came out at 78%.

Take `CCCC1(CC(=O)O)CCCc2c1[nH]c1c(F)ccc(C#N)c21` (centres unmarked) [Example 6, 5-Cyano-8-fluoro-1-propyl-2,3,4,9-tetrahydro-1H-carbazole-1-acetic acid]: on purified ovine COX-1, the inhibition at 10 µM came out at 73%. Also, the 50% inhibitory concentration (IC50) at rhCOX-2 came to 0.32 µM.

Regarding `CS(=O)(=O)Nc1ccc([N+](=O)[O-])cc1OC1CCCCC1` [N-(2-cyclohexyloxy-4-nitrophenyl)methanesulfonamide], the antiinflammatory effect result in series [1] was “effective antiinflammatory”. The “selectivity for inhibition of COX-2” value in the series on COX-2 is “selective COX-2 inhibitor”. Further, the gastric side effects result in series [2] is “lacks gastric side effects”.

For `CCCC1(CC(=O)O)OCCc2c1[nH]c1c(C)ccc(C#N)c21` (centres unmarked) [Example 2, 5-Cyano-8-methyl-1-propyl-1,3,4,9-tetrahydropyrano[3,4-b]indole-1-acetic acid], the inhibition at 90 µM on purified ovine COX-1 stood at 86%. The inhibition at 3 µM at rhCOX-2 (at 3 μM, read-out: % inh of rhCOX-2) was found to be 38%.

For `COc1ccc2c(c1)c(CC(=O)O)c(C)n2C(=O)c1ccc(Cl)cc1` [Indomethacin], the “treatment of Alzheimer's disease” value in series [3] is “useful in the treatment of Alzheimer's disease”. In the series on COX-2, the “selectivity for inhibition of COX-2” value was “relatively non-selective inhibitor of COX-1 and COX-2”.

As to `CCCC1(CC(=O)O)CCCc2c1[nH]c1cccc(C#N)c21` (centres unmarked) [Example 10, 5-Cyano-1-propyl-2,3,4,9-tetrahydro-1H-carbazole-1-acetic acid], the inhibition at 90 µM at purified ovine COX-1 came out at 74%. The inhibition at 0.1 µM on rhCOX-2 (read-out: % inh of rhCOX-2) was determined as 18%.

As to `CCCC1(CC(=O)O)CCCc2c1[nH]c1cc(C#N)ccc21` (centres unmarked) [Example 13, 7-Cyano-1-propyl-2,3,4,9-tetrahydro-1H-carbazole-1-acetic acid], the inhibition at 90 µM at purified ovine COX-1 turned out to be 100%. The inhibition at 0.1 µM on rhCOX-2 (read-out: % inh of rhCOX-2) was found to be 31%.
